Measurements: ChEMBL document CHEMBL1149803, “Synthesis and anticonvulsant activity of some novel 3-aryl amino/amino-4-aryl-5-imino-Delta2-1,2,4-thiadiazoline” (Eur J Med Chem, 2008)
Active and inactive are the calls of the source. No cut-off for these calls is given here.

Assays:
Rattus norvegicus = assay: Sedative-hypnotic effect in Sprague-Dawley albino rat assessed as increase in sleep time at 100 mg/kg, ip by phenobarbitone-induced hypnosis test; format: functional; conditions: route intraperitoneal
Mus musculus [1] = assay: Anticonvulsant activity in ip dosed CF1 albino mouse assessed as prevention of maximal electroshock-induced seizures after 4 hrs; format: functional
Mus musculus [2] = assay: Neurotoxicity in ip dosed CF1 albino mouse after 0.5 hrs by rotarod test; format: toxicity, organism-based; conditions: in vivo
Mus musculus [3] = assay: Anticonvulsant activity in ip dosed CF1 albino mouse assessed as prevention of subcutaneous pentylenetetrazole-induced seizure after 0.5 hrs; format: functional
Mus musculus [4] = assay: Anticonvulsant activity in CF1 albino mouse assessed as prevention of subcutaneous pentylenetetrazole-induced seizure at 300 mg/kg, ip after 4 hrs; format: functional, organism-based; parameters: dose 300 mg/kg
Mus musculus [5] = assay: Anticonvulsant activity in ip dosed CF1 albino mouse assessed as prevention of maximal electroshock-induced seizures after 0.5 hrs; format: functional
Mus musculus [6] = assay: Anticonvulsant activity in CF1 albino mouse assessed as prevention of maximal electroshock-induced seizures at 300 mg/kg, ip after 4 hrs; format: functional, organism-based; parameters: dose 300 mg/kg
Mus musculus [7] = assay: Anticonvulsant activity in CF1 albino mouse assessed as prevention of subcutaneous pentylenetetrazole-induced seizure at 300 mg/kg, ip after 0.5 hrs; format: functional, organism-based; parameters: dose 300 mg/kg
Mus musculus [8] = assay: Neurotoxicity in ip dosed CF1 albino mouse after 4 hrs by rotarod test; format: toxicity, organism-based; conditions: in vivo
Mus musculus [9] = assay: Anticonvulsant activity in CF1 albino mouse assessed as prevention of maximal electroshock-induced seizures at 300 mg/kg, ip after 0.5 hrs; format: functional, organism-based; parameters: dose 300 mg/kg

Compound `CCOc1ccc(Nc2nsc(=N)n2-c2ccc(OCC)cc2)cc1` has an Activity (Rattus norvegicus) of 55.6%, an Activity (Mus musculus [1]) of 300 mg/kg and an Activity (Mus musculus [2]) of 300 mg/kg. For the same compound, the Activity (Mus musculus [3]) was 300 mg/kg, the Activity (Mus musculus [4]) was “inactive” and the Activity (Mus musculus [5]) was 30 mg/kg.
In the case of `N=c1snc(N)n1-c1ccncc1`, the Activity (Mus musculus [6]) was “inactive”, the Activity (Mus musculus [2]) was 100 mg/kg and the Activity (Mus musculus [7]) was “inactive”. For the same compound, the Activity (Mus musculus [4]) was “inactive” and the Activity (Mus musculus [5]) was 300 mg/kg.
In the case of `N=c1snc(N)n1-c1cccnc1`, the Activity (Mus musculus [6]) was “inactive”, the Activity (Mus musculus [2]) was 100 mg/kg and the Activity (Mus musculus [7]) was “inactive”. The Activity (Mus musculus [4]) was “inactive” and the Activity (Mus musculus [5]) was 300 mg/kg.
For `NC(=O)N1c2ccccc2C=Cc2ccccc21` [CARBAMAZEPINE], the Activity (Mus musculus [8]) was 300 mg/kg, the Activity (Mus musculus [6]) was “inactive” and the Activity (Mus musculus [2]) was 100 mg/kg. The Activity (Mus musculus [3]) was 100 mg/kg, the Activity (Mus musculus [4]) was “inactive” and the Activity (Mus musculus [5]) was 30 mg/kg.
With `N=c1snc(Nc2cccnc2)n1-c1cccnc1` the Activity (Mus musculus [6]) was “inactive”, the Activity (Mus musculus [2]) was 100 mg/kg and the Activity (Mus musculus [7]) was “inactive”. The Activity (Mus musculus [4]) was “inactive” and the Activity (Mus musculus [5]) was 300 mg/kg.
`N=c1snc(N)n1-c1ccc(Cl)cc1` was tested, and the Activity (Mus musculus [6]) was “inactive”, the Activity (Mus musculus [2]) was 100 mg/kg and the Activity (Mus musculus [7]) was “inactive”. For the same compound, the Activity (Mus musculus [4]) was “inactive” and the Activity (Mus musculus [5]) was 300 mg/kg.
In the case of `N=c1snc(N)n1-c1ccccn1`, the Activity (Mus musculus [6]) was “inactive”, the Activity (Mus musculus [2]) was 100 mg/kg and the Activity (Mus musculus [7]) was “inactive”. The Activity (Mus musculus [4]) was “inactive” and the Activity (Mus musculus [5]) was 300 mg/kg.
In the case of `N=c1snc(Nc2ccncc2)n1-c1ccncc1`, the Activity (Mus musculus [6]) was “inactive”, the Activity (Mus musculus [2]) was 100 mg/kg and the Activity (Mus musculus [7]) was “inactive”. The Activity (Mus musculus [4]) was “inactive” and the Activity (Mus musculus [5]) was 300 mg/kg.
`N=c1snc(Nc2ccc(F)cc2)n1-c1ccc(F)cc1` showed an Activity (Rattus norvegicus) of 5.1%, an Activity (Mus musculus [1]) of 300 mg/kg and an Activity (Mus musculus [2]) of 300 mg/kg. The Activity (Mus musculus [7]) was “inactive”, the Activity (Mus musculus [4]) was “inactive” and the Activity (Mus musculus [5]) was 100 mg/kg.
For `N=c1snc(N)n1-c1cccc2ccccc12`, the Activity (Mus musculus [8]) was 300 mg/kg, the Activity (Rattus norvegicus) was 8.8% and the Activity (Mus musculus [6]) was “inactive”. The Activity (Mus musculus [2]) was 300 mg/kg, the Activity (Mus musculus [7]) was “inactive” and the Activity (Mus musculus [4]) was “inactive”. The Activity (Mus musculus [5]) was 30 mg/kg.
With `N=c1snc(N)n1-c1ccc(Br)cc1` the Activity (Mus musculus [6]) was “inactive”, the Activity (Mus musculus [7]) was “inactive” and the Activity (Mus musculus [4]) was “inactive”. For the same compound, the Activity (Mus musculus [5]) was 300 mg/kg.
With `COc1ccc(-n2c(N)nsc2=N)cc1` the Activity (Mus musculus [6]) was “inactive”, the Activity (Mus musculus [7]) was “inactive” and the Activity (Mus musculus [4]) was “inactive”. The Activity (Mus musculus [5]) was 300 mg/kg.
With `N=c1snc(N)n1-c1ncccn1` the Activity (Mus musculus [6]) was “inactive”, the Activity (Mus musculus [2]) was 100 mg/kg and the Activity (Mus musculus [7]) was “inactive”. The Activity (Mus musculus [4]) was “inactive” and the Activity (Mus musculus [9]) was “inactive”.
`N=c1snc(Nc2cccc3ccccc23)n1-c1cccc2ccccc12` showed an Activity (Rattus norvegicus) of 16.4%, an Activity (Mus musculus [1]) of 300 mg/kg and an Activity (Mus musculus [2]) of 300 mg/kg. The Activity (Mus musculus [7]) was “inactive”, the Activity (Mus musculus [4]) was “inactive” and the Activity (Mus musculus [5]) was 30 mg/kg.
In the case of `N=c1snc(Nc2ncccn2)n1-c1ncccn1`, the Activity (Rattus norvegicus) was 11.4%, the Activity (Mus musculus [6]) was “inactive” and the Activity (Mus musculus [2]) was 100 mg/kg. The Activity (Mus musculus [7]) was “inactive”, the Activity (Mus musculus [4]) was “inactive” and the Activity (Mus musculus [5]) was 100 mg/kg.
In the case of `N=c1snc(N)n1-c1ccc(F)cc1`, the Activity (Rattus norvegicus) was 20.2%, the Activity (Mus musculus [1]) was 300 mg/kg and the Activity (Mus musculus [2]) was 100 mg/kg. The Activity (Mus musculus [7]) was “inactive”, the Activity (Mus musculus [4]) was “inactive” and the Activity (Mus musculus [5]) was 100 mg/kg.
For `N=c1snc(Nc2ccccn2)n1-c1ccccn1`, the Activity (Mus musculus [8]) was 300 mg/kg, the Activity (Mus musculus [6]) was “inactive” and the Activity (Mus musculus [2]) was 100 mg/kg. The Activity (Mus musculus [7]) was “inactive”, the Activity (Mus musculus [4]) was “inactive” and the Activity (Mus musculus [5]) was 300 mg/kg.
With `O=C1NC(=O)C(c2ccccc2)(c2ccccc2)N1` [PHENYTOIN] the Activity (Mus musculus [8]) was 100 mg/kg, the Activity (Mus musculus [1]) was 100 mg/kg and the Activity (Mus musculus [2]) was 100 mg/kg. For the same compound, the Activity (Mus musculus [7]) was “inactive”, the Activity (Mus musculus [4]) was “inactive” and the Activity (Mus musculus [5]) was 30 mg/kg.
`CCOc1ccc(-n2c(N)nsc2=N)cc1` was tested, and the Activity (Rattus norvegicus) was 46.8%, the Activity (Mus musculus [6]) was “inactive” and the Activity (Mus musculus [2]) was 100 mg/kg. The Activity (Mus musculus [7]) was “inactive”, the Activity (Mus musculus [4]) was “inactive” and the Activity (Mus musculus [5]) was 100 mg/kg.
